This is an account of results in patent publication US20120009152A1, “NITRIC OXIDE DONORS FOR TREATMENT OF DISEASE AND INJURY” (priority 2002, published 2012).

The subject of series [1] is BrdU immunoreactive cells in dentate gyrus, SVZ and OB. Nature of the series: Cell proliferation (BrdU) in non-ischemic aged rats. The series is classed as in vivo, rat. Conditions: non-ischemic 18-month-old rats; DETA/NONOate 0.4 mg/kg daily 7 days; vs saline. How it is done:
[…] […] I.V bolus doses of DETA/NONOate (0.1 mg/kg each, every 15 min, and total dose of 0.4 mg/kg) on the first experimental day and DETA/NONOate (0.4 mg/kg) was administered (i.p) daily for an additional 6 consecutive days. Rats that received saline were used as a control group. Bromodeoxyuridine (BrdU) was used as mitotic labeling to measure cell proliferation. Animals received daily i.p injections of BrdU (50 mg/kg, Sigma) on the first experimental day and subsequently for 14 consecutive days. Rats were sacrificed at 14 and 42 days after the treatment. BrdU immunoreactive nuclei were counted on a computer monitor to improve visualization and in one focal plane to avoid over-sampling. Structures were sampled either by selecting predetermined areas on each section (OB) or by analyzing entire structures on each section (SVZ and dentate gyrus) (Zhang et al., 2001). All BrdU immunoreactive-positive nuclei in these areas are presented as the number of the BrdU immunoreactive cells/mm^2. Density for the selected several sections was averaged to obtain a mean density value for each animal (Zhang et al., 2001).
The question of whether this induction of neurogenesis by means of an NO donor in young adult (3-4 month old) rats would also be present in older rats was also tested. […]

In series [2] the test system is rats subjected to embolic middle cerebral artery occlusion. Nature of the series: Foot-fault test after embolic MCA occlusion. The series is classed as in vivo, rat. How it is done:
(§1) Male Wistar rats weighing 320 to 380 g were used in the present study. The middle cerebral artery (MCA) was occluded by placement of an embolus at the origin of the MCA.
(§2) Ischemic rats (n=9) were treated with the same volume of tap water as a control group. Functional tests were performed and body weight was measured before ischemia and at 4, 7, 14, 21, and 28 days after onset of MCA occlusion. All rats were killed 28 days after MCA occlusion. […] These rats were killed 1 hour after the last treatment for measurements of brain levels of cGMP. […] Experiments were also performed to examine brain PDE5, nonischemic rats and ischemic rats were killed at 2, 4, 24, 48, and 168 hours after the onset of ischemia (n=3 for each time point). Reverse transcription (RT)-polymerase chain reaction (PCR) was performed to detect PDE5 in brain tissue.
Rats were tested for placement dysfunction of forelimbs with the modified foot-fault test before ischemia and at 4, 7, 14, 21, and 28 days after embolic ischemia. Rats were set on an elevated hexagonal grid of different sizes and placed their paws on the wire while moving along the grid. With each weight-bearing step, the paw may fall or slip between the wire. The total number of steps (movement of each forelimb) that the rat used to cross the grid was counted, and the total number of foot-faults for each forelimb was recorded.

Series [3] in a line: Animal body weight loss after embolic MCA occlusion. The class given is in vivo, rat. How it is done:
Male Wistar rats weighing 320 to 380 g were used in the present study. The middle cerebral artery (MCA) was occluded by placement of an embolus at the origin of the MCA. […] Ischemic rats (n=9) were treated with the same volume of tap water as a control group. Functional tests were performed and body weight was measured before ischemia and at 4, 7, 14, 21, and 28 days after onset of MCA occlusion. All rats were killed 28 days after MCA occlusion. […] These rats were killed 1 hour after the last treatment for measurements of brain levels of cGMP. […] Reverse transcription (RT)-polymerase chain reaction (PCR) was performed to detect PDE5 in brain tissue. Animals were weighed before and at 4, 7, 14, 21, and 28 days after embolic ischemia. Body weight loss is presented as a percentage of […] body weight.

Series [4] has as its system rats subjected to embolic middle cerebral artery occlusion. Nature of the series: Infarct volume 28 days after embolic MCA occlusion. The series is classed as in vivo, rat. As to conditions: 28 days after ischemia. How it is done:
as §1, §2
Measurement of infarct volume was measured on 7 hematoxylin and eosin-stained coronal sections with the use of a Global Laboratory Image analysis program (Data Translation). Briefly, the area of both hemispheres and the infarct area (mm 2) were calculated by tracing the area on the computer screen. Infarct volume (mm 3) was determined by multiplying the appropriate area by the section interval thickness. The infarct volume is presented as the percent-age of infarct volume of the contralateral hemisphere (indirect volume calculation).

For series [5] the following is noted: cited from earlier work.
The mark [6] stands for this setting: Sildenafil 2 mg/kg, 2 h group, Before Ischemia (baseline).
[7] abbreviates: Sildenafil 2 mg/kg, 24 h group, Before Ischemia (baseline).
Where [8] appears, read: Sildenafil 5 mg/kg, 2 h group, Before Ischemia (baseline).

On to `NCCN(CCN)/[N+]([O-])=N/O` [DETANONOate, (Z)-1-[N-(2-aminoethyl)-N-(2-ammonioethyl)aminio]diazen-1-ium-1,2-diolate], for which the “number of proliferating cells (dentate gyrus, SVZ, OB)” value in series [1] is reported as “significantly increased the number of proliferating cells”.
With `CCCc1nn(C)c2c(=O)[nH]c(-c3cc(S(=O)(=O)N4CCN(C)CC4)ccc3OCC)nc12` [Sildenafil], the “% of Foot-Faults” value in series [2] (Sildenafil 2 mg/kg, 2 h, 4 d after ischemia) is recorded as 22.81 ± 3.1%; in series [2] (Sildenafil 2 mg/kg, 2 h, 7 d), 15.2 ± 1.6 %; in series [2] (Sildenafil 2 mg/kg, 2 h, 14 d), 13.2 ± 1.2 %; in series [2] (Sildenafil 2 mg/kg, 2 h, 21 d), 9.1 ± 1.5 %; in series [2] (Sildenafil 2 mg/kg, 2 h, 28 d), 8.2 ± 1.4%; in series [2] (setting [6]) it was 1.1 ± 0.01%. The “% of Foot-Faults” value in series [2] (Sildenafil 2 mg/kg, 24 h, 4 d) amounted to 25.3 ± 3.8%; in series [2] (Sildenafil 2 mg/kg, 24 h, 7 d), 14.4 ± 1.0 %; in series [2] (Sildenafil 2 mg/kg, 24 h, 14 d), 10.0 ± 0.5 %; in series [2] (Sildenafil 2 mg/kg, 24 h, 21 d), 9.0 ± 0.5 %; in series [2] (Sildenafil 2 mg/kg, 24 h, 28 d) it was 5.3 ± 0.8 %; in series [2] (setting [7]), 1.03 ± 0.03%. Further, the “% of Foot-Faults” value in series [2] (Sildenafil 5 mg/kg, 2 h, 4 d) was determined as 17.9 ± 2.9%; in series [2] (Sildenafil 5 mg/kg, 2 h, 7 d) it was 16.6 ± 1.4 %; in series [2] (Sildenafil 5 mg/kg, 2 h, 14 d), 14.6 ± 2.1 %; in series [2] (Sildenafil 5 mg/kg, 2 h, 21 d) it was 9.5 ± 1.6 %; in series [2] (Sildenafil 5 mg/kg, 2 h, 28 d), 7.6 ± 1.4%; in series [2] (setting [8]), 1.02 ± 0.02%. Besides, the “% of Preischemic Body Weight” value in series [3] (Sildenafil 2 mg/kg, 2 h, 4 d) came out at 81.8 ± 2.3%; in series [3] (Sildenafil 2 mg/kg, 2 h, 7 d), 86.6 ± 2.5 %; in series [3] (Sildenafil 2 mg/kg, 2 h, 14 d), 89.6 ± 4.7 %; in series [3] (Sildenafil 2 mg/kg, 2 h, 21 d) it was 98.2 ± 3.7 %; in series [3] (Sildenafil 2 mg/kg, 2 h, 28 d), 105.2 ± 3.0 %; in series [3] (setting [6]), 100%. Besides, the “% of Preischemic Body Weight” value in series [3] (Sildenafil 2 mg/kg, 24 h, 4 d) is given as 86.9 ± 0.2%; in series [3] (Sildenafil 2 mg/kg, 24 h, 7 d), 84.9 ± 1.8 %; in series [3] (Sildenafil 2 mg/kg, 24 h, 14 d), 89.2 ± 2.6 %; in series [3] (Sildenafil 2 mg/kg, 24 h, 21 d), 99.5 ± 2.0 %; in series [3] (Sildenafil 2 mg/kg, 24 h, 28 d), 107.2 ± 2.5 %; in series [3] (setting [7]) it was 100%. Moreover, the “% of Preischemic Body Weight” value in series [3] (Sildenafil 5 mg/kg, 2 h, 4 d) came out at 84.6 ± 1.8%; in series [3] (Sildenafil 5 mg/kg, 2 h, 7 d), 81.8 ± 2.5 %; in series [3] (Sildenafil 5 mg/kg, 2 h, 14 d), 84.7 ± 3.9%; in series [3] (Sildenafil 5 mg/kg, 2 h, 21 d), 95.2 ± 3.5 %; in series [3] (Sildenafil 5 mg/kg, 2 h, 28 d) it was 101.3 ± 4.3%; in series [3] (setting [8]) it was 100%. The “Infarct Volume, %” value in series [4] (Sildenafil 2 mg/kg, 2 h, percentage of lesion relative to the contralateral hemisphere) came out at 35.2 ± 3.3%; in series [4] (Sildenafil 2 mg/kg, 24 h), 35.5 ± 0.9%; in series [4] (Sildenafil 5 mg/kg, 2 h), 37.7 ± 4.3%. Besides, the half-life in rats in series [5] is 24 min.
